Measured values from ChEMBL document CHEMBL5346880, “ATP-competitive inhibitors of human DNA topoisomerase IIα with improved antiproliferative activity based on N-phenylpyrrolamide scaffold” (Eur J Med Chem, 2023).
Converted amounts (≈) assume the structure as drawn.

What was measured:
[1] = biological target: T1, DNA topoisomerase 2-alpha (Homo sapiens, UniProt P11388); assay: Inhibition of human DNA topoisomerase 2 alpha assessed as relaxation of supercoiled plasmid pNO1 DNA incubated for 30 mins by fluorescence based analysis
T1 sequence (P11388 whole entry): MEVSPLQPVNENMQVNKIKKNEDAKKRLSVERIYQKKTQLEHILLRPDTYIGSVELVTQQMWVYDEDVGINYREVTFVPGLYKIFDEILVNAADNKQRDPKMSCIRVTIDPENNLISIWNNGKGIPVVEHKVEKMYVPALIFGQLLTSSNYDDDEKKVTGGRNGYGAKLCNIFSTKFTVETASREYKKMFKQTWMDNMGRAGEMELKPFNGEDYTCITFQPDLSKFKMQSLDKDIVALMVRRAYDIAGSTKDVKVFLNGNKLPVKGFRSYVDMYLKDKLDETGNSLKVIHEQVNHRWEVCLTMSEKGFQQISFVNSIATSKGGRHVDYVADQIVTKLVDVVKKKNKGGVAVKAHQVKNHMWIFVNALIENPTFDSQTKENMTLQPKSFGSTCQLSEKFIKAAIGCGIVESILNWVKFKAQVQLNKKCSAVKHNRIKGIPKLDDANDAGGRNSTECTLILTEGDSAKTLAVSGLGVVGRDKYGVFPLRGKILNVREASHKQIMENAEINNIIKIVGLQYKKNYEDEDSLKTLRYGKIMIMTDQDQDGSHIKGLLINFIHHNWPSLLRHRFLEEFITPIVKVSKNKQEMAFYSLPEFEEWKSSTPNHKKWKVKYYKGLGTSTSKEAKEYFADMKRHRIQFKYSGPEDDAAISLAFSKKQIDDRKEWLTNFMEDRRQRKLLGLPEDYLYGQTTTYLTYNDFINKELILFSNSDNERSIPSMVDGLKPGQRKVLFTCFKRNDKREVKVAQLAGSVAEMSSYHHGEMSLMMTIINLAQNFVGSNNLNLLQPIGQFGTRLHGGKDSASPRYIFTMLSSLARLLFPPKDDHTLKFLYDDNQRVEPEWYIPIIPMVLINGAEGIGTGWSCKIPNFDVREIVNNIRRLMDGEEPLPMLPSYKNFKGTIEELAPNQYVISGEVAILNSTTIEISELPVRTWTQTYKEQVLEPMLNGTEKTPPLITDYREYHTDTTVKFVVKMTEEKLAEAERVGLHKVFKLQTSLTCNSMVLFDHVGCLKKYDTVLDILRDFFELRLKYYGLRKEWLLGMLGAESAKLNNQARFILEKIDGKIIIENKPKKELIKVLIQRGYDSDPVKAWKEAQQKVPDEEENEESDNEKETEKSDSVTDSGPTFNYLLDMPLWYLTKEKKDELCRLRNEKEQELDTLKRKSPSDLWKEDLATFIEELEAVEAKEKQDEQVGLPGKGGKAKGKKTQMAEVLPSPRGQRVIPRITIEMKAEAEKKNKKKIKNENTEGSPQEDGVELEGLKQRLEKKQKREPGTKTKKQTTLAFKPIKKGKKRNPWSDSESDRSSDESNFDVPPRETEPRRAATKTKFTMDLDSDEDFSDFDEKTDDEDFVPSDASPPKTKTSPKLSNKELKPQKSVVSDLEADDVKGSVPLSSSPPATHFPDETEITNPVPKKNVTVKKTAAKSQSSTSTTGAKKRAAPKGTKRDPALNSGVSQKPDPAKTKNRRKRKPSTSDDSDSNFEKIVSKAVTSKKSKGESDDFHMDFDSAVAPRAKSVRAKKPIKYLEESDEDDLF

MCF7 = assay: cells; conditions: Homo sapiens, MCF7, 72 h
Description: Cytotoxicity against human MCF7 cells assessed as inhibition of cell growth incubated for 72 hrs by MTS assay

HepG2 = assay: cells; conditions: Homo sapiens, HepG2, 72 h
Description: Cytotoxicity against human HepG2 cells assessed as inhibition of cell growth incubated for 72 hrs by MTS assay

[2] = Thermodynamic aqueous solubility of compound in PBS buffer at pH 7.4 at 25 degreeC measured after 24 hrs by UPLC analysis; format: physicochemical; conditions: read-out: Therm_solubility
K562 = assay: Cytotoxicity against human K562 cells assessed as reduction in cell viability at 10 uM by MTT assay; format: functional, cell-based
[3] = Metabolic stability in rat liver S9 fraction assessed as half life at 100 uM measured upto 120 mins in presence of NADPH by HPLC analysis; format: ADME, subcellular
[4] = Cytotoxicity against HEK293 cells assessed as inhibition of cell growth incubated for 72 hrs by MTS assay; format: toxicity, cell-based; conditions: human
[5] = Selectivity index, ratio of IC50 for HEK293 cells to IC50 for human MCF7 cells; format: toxicity; conditions: HEK293 cells versus MCF7 cells, read-out: Ratio IC50
[6] = Selectivity index, ratio of IC50 for HEK293 cells to IC50 for human HepG2 cells; format: toxicity; conditions: HEK293 cells versus HepG2 cells, read-out: Ratio IC50
[7] = biological target: T1, DNA topoisomerase 2-alpha; assay: Inhibition of human DNA topoisomerase 2 alpha assessed as ATP hydrolysis measured for 30 mins by absorbance based assay
DNA topoisomerase 1 = biological target: T2, DNA topoisomerase 1 (Homo sapiens, UniProt P11387); assay: Inhibition of human DNA Topoisomerase 1 assessed as relaxation of supercoiled plasmid pBR322 DNA incubated for 30 mins by ethidium bromide staining based agarose gel electrophoresis
T2 sequence (P11387 whole entry): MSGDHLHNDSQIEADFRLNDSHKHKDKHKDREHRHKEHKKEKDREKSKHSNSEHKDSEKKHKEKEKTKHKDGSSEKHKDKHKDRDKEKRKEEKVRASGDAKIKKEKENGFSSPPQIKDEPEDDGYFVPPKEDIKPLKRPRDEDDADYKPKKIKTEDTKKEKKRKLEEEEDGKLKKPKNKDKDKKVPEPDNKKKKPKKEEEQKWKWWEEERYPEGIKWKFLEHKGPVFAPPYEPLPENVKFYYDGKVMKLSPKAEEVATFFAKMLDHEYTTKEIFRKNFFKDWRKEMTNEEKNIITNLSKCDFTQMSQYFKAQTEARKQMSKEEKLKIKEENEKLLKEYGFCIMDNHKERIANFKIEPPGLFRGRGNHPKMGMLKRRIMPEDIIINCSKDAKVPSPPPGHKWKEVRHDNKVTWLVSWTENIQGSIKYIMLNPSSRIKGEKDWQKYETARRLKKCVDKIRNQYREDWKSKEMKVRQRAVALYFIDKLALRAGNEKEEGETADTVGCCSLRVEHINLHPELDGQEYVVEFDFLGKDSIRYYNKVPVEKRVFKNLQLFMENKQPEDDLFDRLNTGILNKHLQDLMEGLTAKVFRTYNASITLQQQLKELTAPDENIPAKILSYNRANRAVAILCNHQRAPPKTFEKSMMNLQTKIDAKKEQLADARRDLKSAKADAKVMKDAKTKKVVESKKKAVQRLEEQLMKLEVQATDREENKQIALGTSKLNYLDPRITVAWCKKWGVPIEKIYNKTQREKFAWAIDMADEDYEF

## Cc1[nH]c(C(=O)Nc2ccc(C(=O)N[C@@H](Cc3ccccc3)C(=O)O)cc2OC(C)C)c(Cl)c1Cl
[1]
  IC50: 5 µM
MCF7
  IC50: > 50 µM
HepG2
  IC50: > 50 µM

## CCc1[nH]c(C(=O)Nc2ccccc2OCc2cccc(C(=O)NCCN)c2)nc1Cl
[1]
  IC50: 37 µM

## Cc1[nH]c(C(=O)Nc2cc(C(=O)O)ccc2OC2CCN(C(=O)OC(C)(C)C)CC2)c(Cl)c1Cl
[1]
  IC50: 38 µM

## CCc1cnc(C(=O)Nc2ccc(C(N)=O)cc2OC(C)C)[nH]1
[1]
  IC50: > 100 µM

## Cc1[nH]c(C(=O)Nc2ccc(C(N)=O)cc2N2CCOCC2)c(Cl)c1Cl
[1]
  IC50: > 100 µM

## Cc1ccc(C(=O)Nc2ccccc2OCc2cccc(C(=O)NCCN)c2)[nH]1
[1]
  IC50: > 100 µM

## Cc1[nH]c(C(=O)Nc2ccccc2OCc2cccc(C(=O)NC3CCNC3)c2)c(Cl)c1Cl.Cl (centres undefined)
[1]
  IC50: 6.3 µM
[2]
  solubility thermodynamic at 24 h: 15 µM
K562
  IC50: 570 nM

## Cc1[nH]c(C(=O)Nc2ccc(C(=O)N3CCCC(N)C3)cc2OC(C)C)c(Cl)c1Cl (centres undefined)
[1]
  IC50: 32 µM

## Cc1[nH]c(C(=O)Nc2ccc(C(N)=O)cc2OCc2cccc(C(=O)NCC(=O)O)c2)c(Cl)c1Cl
[1]
  IC50: 3.5 µM

## Cc1[nH]c(C(=O)Nc2ccc(C(=O)NC3CCCNC3)cc2OC(C)C)c(Cl)c1Cl.Cl (centres undefined)
[1]
  IC50: 1.3 µM
[2]
  solubility thermodynamic at 24 h: 4.6 µM
[3]
  half-life at 100 µM: > 300 min

## NCCNC(=O)c1cccc(COc2ccccc2NC(=O)c2cc([N+](=O)[O-])c[nH]2)c1
[1]
  IC50: > 100 µM

## NCCNC(=O)c1cccc(COc2ccccc2NC(=O)c2cc(Cl)c(Cl)[nH]2)c1
[1]
  IC50: 76 µM

## Cc1[nH]c(C(=O)Nc2ccccc2OCc2cccc(C(=O)N3CCCC(N)C3)c2)c(Cl)c1Cl (centres undefined)
[1]
  IC50: 27 µM
[4]
  IC50 at 72 h: 1700 nM
[5]
  selectivity ratio: 1.3
[6]
  selectivity ratio: 0.9
K562
  IC50: 770 nM
MCF7
  IC50: 1.3 µM
HepG2
  IC50: 1.9 µM

## Cc1[nH]c(C(=O)Nc2ccccc2OC2CCN(C(=O)OC(C)(C)C)CC2)c(Cl)c1Cl
[1]
  IC50: > 100 µM

## COC(=O)[C@@H](C)NC(=O)c1ccc(NC(=O)c2[nH]c(C)c(Cl)c2Cl)c(OC2CCNCC2)c1
[1]
  IC50: 45 µM
MCF7
  IC50: 8.7 µM
HepG2
  IC50: 9.8 µM

## Cc1[nH]c(C(=O)Nc2ccccc2OCc2cccc(C(=O)NCCN)c2)cc1F
[1]
  IC50: > 100 µM

## CCc1[nH]c(C(=O)Nc2ccc(C(N)=O)cc2OC(C)C)nc1Cl
[1]
  IC50: 6.6 µM
[3]
  half-life at 100 µM: > 300 min

## COc1ccc(NC(=O)c2[nH]c(C)c(Br)c2Br)c(C(=O)NCCc2ccc(C(=O)O)cc2)c1
[1]
  IC50: 25 µM

## Cc1[nH]c(C(=O)Nc2ccc(C(=O)N3CCNCC3)cc2OC(C)C)c(Cl)c1Cl
[1]
  IC50: > 100 µM

## Cc1[nH]c(C(=O)Nc2ccccc2OCc2cccc(C(=O)NC3CCCNC3)c2)c(Cl)c1Cl.Cl (centres undefined)
[1]
  IC50: 7.7 µM
[4]
  IC50 at 72 h: 2100 nM
[5]
  selectivity ratio: 14
[6]
  selectivity ratio: 16
[2]
  solubility thermodynamic at 24 h: 10 µM
[3]
  half-life at 100 µM: > 300 min
K562
  IC50: 190 nM
MCF7
  IC50: 0.15 µM
HepG2
  IC50: 0.13 µM

## Cc1[nH]c(C(=O)Nc2ccc(O)cc2C(=O)NCc2ccc(C(=O)O)cc2)c(Cl)c1Cl
[1]
  IC50: 24 µM

## Cc1[nH]c(C(=O)Nc2cc(C(N)=O)ccc2OC2CCNC2)c(Cl)c1Cl (centres undefined)
[1]
  IC50: 32 µM

## Cc1[nH]c(C(=O)Nc2ccc(C(=O)NCC(=O)O)cc2OC(C)C)c(Cl)c1Cl
[1]
  IC50: 7.2 µM
MCF7
  IC50: > 50 µM
HepG2
  IC50: > 50 µM

## Cc1[nH]c(C(=O)Nc2ccc(C(N)=O)cc2NCCN)c(Cl)c1Cl.Cl
[1]
  IC50: > 100 µM
[3]
  half-life at 100 µM: > 300 min

## Cc1[nH]c(C(=O)Nc2ccc(C(N)=O)cc2OCC(=O)N2CCCC(NC(=O)OC(C)(C)C)C2)c(Cl)c1Cl (centres undefined)
[1]
  IC50: > 100 µM

## Cc1[nH]c(C(=O)Nc2ccccc2OCc2cccc(C(=O)NCCN)c2)cc1Cl
[1]
  IC50: 35 µM

## CCc1nc2nc(Nc3ccc4nc(OCCN5CCOCC5)ccc4c3)nc(NC(C)(C)C)c2[nH]1
[1]
  IC50: 0.73 µM
MCF7
  IC50: 7.7 µM
HepG2
  IC50: 11 µM

## C[C@]12CC[C@H]3[C@@H](CCC4=CC(=O)CC[C@@]43C)[C@@H]1CC[C@@H]2O [TESTOSTERONE]
[3]
  half-life at 100 µM: 8.5 min

## Cc1[nH]c(C(=O)Nc2ccc(C(=O)NCC3CCNCC3)cc2OC(C)C)c(Cl)c1Cl.Cl
[1]
  IC50: 2.9 µM
[2]
  solubility thermodynamic at 24 h: 15 µM

## Cc1[nH]c(C(=O)Nc2ccc(C(N)=O)cc2NC(C)C)c(Cl)c1Cl
[1]
  IC50: 13 µM

## Cc1[nH]c(C(=O)Nc2ccc(C(N)=O)cc2OC2CCNCC2)c(Cl)c1Cl.Cl
[3]
  half-life at 100 µM: > 300 min

## Cc1[nH]c(C(=O)Nc2ccc(C(N)=O)cc2OCc2cccc(C(=O)NCCN)c2)c(Cl)c1Cl.Cl
[1]
  IC50: 1 µM
[3]
  half-life at 100 µM: > 300 min

## NCCNC(=O)c1cccc(COc2ccccc2NC(=O)c2cc(Br)c(Br)[nH]2)c1
[1]
  IC50: 45 µM

## Cc1[nH]c(C(=O)Nc2ccccc2OCc2cccc(C(=O)NCCN)c2)c(Cl)c1Cl.Cl
[1]
  IC50: 3 µM
[7]
  IC50: 2300 nM
[4]
  IC50 at 72 h: 27000 nM
[5]
  selectivity ratio: 3
[6]
  selectivity ratio: 1.8
[2]
  solubility thermodynamic at 24 h: 18 µM
[3]
  half-life at 100 µM: > 300 min
MCF7
  IC50: 9 µM
HepG2
  IC50: 15 µM

## COc1cc(NS(C)(=O)=O)ccc1Nc1c2ccccc2nc2ccccc12 [AMSACRINE]
DNA topoisomerase 1
  IC50: 74 µM

## Cc1[nH]c(C(=O)Nc2cc(C(N)=O)ccc2OCCN)c(Cl)c1Cl
[1]
  IC50: 18 µM

## Cc1[nH]c(C(=O)Nc2ccccc2OCc2cccc(C(N)=O)c2)c(Cl)c1Cl
[1]
  IC50: > 100 µM

## Cc1[nH]c(C(=O)Nc2cc(C(N)=O)ccc2OC(C)C)c(Cl)c1Cl
[1]
  IC50: > 100 µM

## COc1ccc(NC(=O)c2[nH]c(C)c(Cl)c2Cl)c(C(=O)NCc2ccc(C(=O)O)cc2)c1
[1]
  IC50: 67 µM
[3]
  half-life at 100 µM: > 300 min

## NS(=O)(=O)c1ccc(CNC(=O)c2cc(O)ccc2NC(=O)c2cc(Br)c(Br)[nH]2)cc1
[1]
  IC50: > 100 µM

## Cc1[nH]c(C(=O)Nc2ccccc2OC2CCNCC2)c(Cl)c1Cl.Cl
[3]
  half-life at 100 µM: > 300 min

## Cc1[nH]c(C(=O)Nc2cc(C(=O)O)ccc2OC2CCNCC2)c(Cl)c1Cl
[1]
  IC50: > 100 µM

## COc1ccc(NC(=O)c2cc(Br)c(Br)[nH]2)c(C(=O)NCc2ccc(C(=O)O)cc2)c1
[1]
  IC50: 39 µM
[3]
  half-life at 100 µM: 290 min

## CCNC(=O)Nc1ccc(OC2CCNCC2)c(NC(=O)c2[nH]c(C)c(Cl)c2Cl)c1
[1]
  IC50: 38 µM
MCF7
  IC50: 33 µM
HepG2
  IC50: 38 µM

## Cc1[nH]c(C(=O)Nc2ccc(C(N)=O)cc2N2CCOC(C)C2)c(Cl)c1Cl (centres undefined)
[1]
  IC50: > 100 µM

## Cc1[nH]c(C(=O)Nc2ccccc2OCc2cccc(C(=O)O)c2)c(Cl)c1Cl
[1]
  IC50: 29 µM
[2]
  solubility thermodynamic at 24 h: 2.1 µM (≈ 0.88 µg/mL)

## Cc1[nH]c(C(=O)Nc2ccccc2OC2CCN(C(=O)OC(C)(C)C)C2)c(Cl)c1Cl (centres undefined)
[1]
  IC50: > 100 µM

## O=C(O)c1ccc(CCNC(=O)c2cc(O)ccc2NC(=O)c2cc(Br)c(Br)[nH]2)cc1
[1]
  IC50: 22 µM

## Cc1[nH]c(C(=O)Nc2ccc(C(=O)NC3CCNCC3)cc2OC(C)C)c(Cl)c1Cl
[1]
  IC50: 4.5 µM

## Cc1[nH]c(C(=O)Nc2ccc(C(N)=O)cc2OCc2cccc(C(=O)NCCC(=O)O)c2)c(Cl)c1Cl
[1]
  IC50: 3.4 µM

## Cc1[nH]c(C(=O)Nc2ccc(C(N)=O)cc2OCC(=O)N2CCCC(N)C2)c(Cl)c1Cl (centres undefined)
[1]
  IC50: 8.3 µM
